{
  "source": "patent US7867749B2",
  "about": "“Nematode phosphoethanolamine N-methyltransferase-like sequences” (priority 2006, dated 2011)",
  "key": {"C. elegans [1]": {"tested_on": "C. elegans", "test": "Nematicidal activity of ethanolamine-like compounds against C. elegans", "type": "in vivo, Caenorhabditis elegans", "details": "P0 L4 larva; for F1 PHENOTYPE: 23° C.; for nematicidal activity against C. elegans: various concentrations"}, "M. incognita": {"tested_on": "M. incognita", "type": "in vivo, Meloidogyne incongnita", "details": "J2 larvae soaked 48 hours", "experimental": "(§1) The ethanolamine-like compounds mentioned above are also nematicidal against the plant parasites Meloidogyne incongnita and Meloidogyne javanica. Between 25 and 50 J2 stage larvae were soaked in the compounds for 48 hours at the indicated concentrations. After the treatment, the larvae were moved to an agar plate containing NGM. Worms that crawl away from the application spot are scored as alive while those that remain at the application spot are scored as dead. The three compounds that were nematicidal against C. elegans were also nematicidal against M. incognita and M. javanica"}, "M. javanica": {"tested_on": "M. javanica", "test": "Nematicidal activity against plant parasites, J2 larvae soak", "type": "in vivo, Meloidogyne javanica", "details": "15 mM; J2 larvae soaked 48 hours", "experimental": "as §1"}, "A. ellesmerensis": {"tested_on": "A. ellesmerensis", "test": "Nematicidal activity against other nematodes", "type": "in vivo, Acrobiloides ellesmerensis"}, "Cephalobus sp.": {"tested_on": "Cephalobus sp.", "test": "Nematicidal activity against other nematodes", "type": "in vivo"}, "C. elegans [2]": {"tested_on": "C. elegans", "test": "Chemical rescue of the PEAMT1 RNAi-generated phenotype (feeding)", "type": "in vivo, Caenorhabditis elegans", "details": "for rescue of PEAMT1 mutants (RNAi-generated): 5 mM; for suppression of PEAMT1 larval lethal RNAi phenotype: chemical complementation, concentration not given"}, "C. elegans [3]": {"tested_on": "C. elegans", "test": "Chemical rescue of the PEAMT2 RNAi-generated phenotype (feeding)", "type": "in vivo, Caenorhabditis elegans", "details": "for rescue of PEAMT2 RNAi phenotype: chemical complementation, singly or in combination, concentration not given"}, "[4]": {"target": "T1, C. elegans PEAMT2 (DIV3202) (Caenorhabditis elegans, UniProt Q22993)", "T1 sequence (Q22993 1-437)": "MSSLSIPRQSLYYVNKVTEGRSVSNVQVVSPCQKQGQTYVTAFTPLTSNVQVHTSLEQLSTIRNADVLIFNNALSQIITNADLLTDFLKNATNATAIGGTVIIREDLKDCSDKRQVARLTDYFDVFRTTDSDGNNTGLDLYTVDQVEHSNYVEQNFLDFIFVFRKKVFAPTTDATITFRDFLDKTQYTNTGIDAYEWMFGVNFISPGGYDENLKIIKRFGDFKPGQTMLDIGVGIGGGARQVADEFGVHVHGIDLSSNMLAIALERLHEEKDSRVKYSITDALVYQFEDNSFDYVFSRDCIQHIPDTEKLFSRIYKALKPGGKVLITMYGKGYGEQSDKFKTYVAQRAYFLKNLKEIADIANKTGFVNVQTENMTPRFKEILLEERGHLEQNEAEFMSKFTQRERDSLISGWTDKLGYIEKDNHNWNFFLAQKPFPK", "test": "Km determination, radiochemical PEAMT assay", "type": "biochemical", "details": "118 nM DIV3202H+"}, "[5]": {"tested_on": "everted hamster jejunal and ileal segments", "details": "cited from earlier work"}, "[6]": {"tested_on": "isolated intestinal epithelial cells", "details": "cited from earlier work"}, "[7]": {"target": "T2, C. elegans PEAMT1 (DIV3441) (Caenorhabditis elegans, UniProt Q23552)", "T2 construct": "HIS tag (pET28a) (N); made in house; host or cells: bacterial culture, IPTG-induced pET28a", "T2 sequence (Q23552 1-475)": "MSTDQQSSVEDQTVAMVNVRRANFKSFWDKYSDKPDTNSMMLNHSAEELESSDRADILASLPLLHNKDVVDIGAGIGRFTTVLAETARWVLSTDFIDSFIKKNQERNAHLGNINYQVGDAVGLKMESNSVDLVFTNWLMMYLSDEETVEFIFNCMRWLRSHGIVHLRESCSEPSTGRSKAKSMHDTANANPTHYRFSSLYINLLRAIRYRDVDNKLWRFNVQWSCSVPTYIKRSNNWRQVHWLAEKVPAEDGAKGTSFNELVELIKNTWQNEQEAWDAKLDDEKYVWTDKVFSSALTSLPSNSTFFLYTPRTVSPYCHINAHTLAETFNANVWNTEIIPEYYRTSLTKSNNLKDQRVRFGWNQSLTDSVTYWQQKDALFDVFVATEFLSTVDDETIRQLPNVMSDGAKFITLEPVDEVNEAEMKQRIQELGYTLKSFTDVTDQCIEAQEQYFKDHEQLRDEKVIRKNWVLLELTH", "test": "Km determination, radiochemical PEAMT assay", "type": "biochemical"}, "[8]": {"details": "P0 L4, 5 or 10 mM in plate media"}},
  "note": "Read-outs that look alike come from different tables or passages of the source.",
  "data": [
    {"smiles": "CC(C)(C)NCCO", "note": "[2-(tert-butylamino)ethanol]", "values": [
      {"measurement": "F1 PHENOTYPE", "setting": "C. elegans [1]; 10 mM", "value": "L1/L2 arrest/lethality"},
      {"measurement": "nematicidal activity against C. elegans", "setting": "C. elegans [1]", "value": "showed nematicidal activity"},
      {"measurement": "% DEAD WORMS", "setting": "M. incognita; 5 mM", "value": 50, "unit": "%"},
      {"measurement": "% DEAD WORMS", "setting": "M. javanica", "value": 50, "unit": "%"},
      {"measurement": "F1 PHENOTYPE", "setting": "A. ellesmerensis; 10 mM", "value": "L1/L2 arrest/lethality"},
      {"measurement": "F1 PHENOTYPE", "setting": "Cephalobus sp.; 10 mM", "value": "L1/L2 arrest/lethality"}
    ]},
    {"smiles": "NCC(O)c1ccccc1", "note": "(stereo not drawn) [2-amino-1-phenylethanol]", "values": [
      {"measurement": "F1 PHENOTYPE", "setting": "C. elegans [1]; 25 mM", "value": "Wild-type development"},
      {"measurement": "nematicidal activity against C. elegans", "setting": "C. elegans [1]", "value": "no nematicidal effect"}
    ]},
    {"smiles": "N[C@@H](CO)Cc1ccccc1", "note": "[D-phenylalaninol]", "values": [
      {"measurement": "F1 PHENOTYPE", "setting": "C. elegans [1]; 10 mM", "value": "L1/L2 arrest/lethality"},
      {"measurement": "nematicidal activity against C. elegans", "setting": "C. elegans [1]", "value": "showed nematicidal activity"},
      {"measurement": "% DEAD WORMS", "setting": "M. incognita; 25 mM", "value": 100, "unit": "%"},
      {"measurement": "F1 PHENOTYPE", "setting": "A. ellesmerensis; 12.5 mM", "value": "L1/L2 arrest/lethality"},
      {"measurement": "F1 PHENOTYPE", "setting": "Cephalobus sp.; 12.5 mM", "value": "L1/L2 arrest/lethality"}
    ]},
    {"smiles": "CN(C)CCO", "note": "[DME, dimethylethanolamine]", "values": [
      {"measurement": "rescue of PEAMT1 mutants (RNAi-generated)", "setting": "C. elegans [2]", "value": "rescued"},
      {"measurement": "rescue of sterility associated with PEAMT1 RNAi", "setting": "C. elegans [2]; Five mM", "value": "rescues the sterility"},
      {"measurement": "F1 phenotype, PEAMT1 dsRNA", "setting": "C. elegans [2]; P0 Dauer, 10 mM in plate media", "value": "Fertile adults"},
      {"measurement": "F1 phenotype, PEAMT1 dsRNA", "setting": "C. elegans [2]; P0 L1, 10 mM in plate media", "value": "Fertile adults"},
      {"measurement": "F1 phenotype, PEAMT1 dsRNA", "setting": "C. elegans [2]; [8]", "value": "Fertile adults"},
      {"measurement": "F1 phenotype, PEAMT2 dsRNA", "setting": "C. elegans [3]; P0 Dauer, 10 mM in plate media", "value": "Sterility"},
      {"measurement": "F1 phenotype, PEAMT2 dsRNA", "setting": "C. elegans [3]; P0 L1, 10 mM in plate media", "value": "Sterility"},
      {"measurement": "F1 phenotype, PEAMT2 dsRNA", "setting": "C. elegans [3]; [8]", "value": "L1/L2 arrest/lethality"},
      {"measurement": "rescue of PEAMT2 RNAi phenotype", "setting": "C. elegans [3]", "value": "not"},
      {"measurement": "Km", "setting": "[4]; 1 mM SAM, 0.05-10 mM DME, read-out: Km of DME for DIV3202H+ (PEAMT2H+; intact HIS tag)", "value": "1.39 ± 0.26", "unit": "µM"}
    ]},
    {"smiles": "CNCCO", "note": "[MME, monomethylethanolamine]", "values": [
      {"measurement": "rescue of PEAMT1 mutants (RNAi-generated)", "setting": "C. elegans [2]", "value": "rescued"},
      {"measurement": "F1 phenotype, PEAMT1 dsRNA", "setting": "C. elegans [2]; [8]", "value": "Fertile adults"},
      {"measurement": "suppression of PEAMT1 larval lethal RNAi phenotype", "setting": "C. elegans [2]", "value": "suppressed"},
      {"measurement": "F1 phenotype, PEAMT2 dsRNA", "setting": "C. elegans [3]; [8]", "value": "L1/L2 arrest/lethality"},
      {"measurement": "rescue of PEAMT2 RNAi phenotype", "setting": "C. elegans [3]", "value": "not"},
      {"measurement": "Km", "setting": "[4]; 1 mM SAM, 0.15-20 mM MME, read-out: Km of MME for DIV3202H+ (PEAMT2H+; intact HIS tag)", "value": "2.1 ± 0.97", "unit": "µM"}
    ]},
    {"smiles": "OCCNc1ccccc1", "note": "[N-(2-hydroxyethyl)aniline]", "values": [
      {"measurement": "F1 PHENOTYPE", "setting": "C. elegans [1]; 10 mM", "value": "L1/L2 arrest/lethality"},
      {"measurement": "nematicidal activity against C. elegans", "setting": "C. elegans [1]", "value": "showed nematicidal activity"}
    ]},
    {"smiles": "CCCCCC[C@@H](O)C/C=C\\CCCCCCCC(=O)O", "note": "[Ricinoleic acid]", "values": [
      {"measurement": "effect on water and electrolyte absorption", "setting": "[5]", "value": "inhibitory effect"},
      {"measurement": "cytotoxicity", "setting": "[6]", "value": "cytotoxic"}
    ]},
    {"smiles": "C[S+](CC[C@H](N)C(=O)O)C[C@H]1O[C@@H](n2cnc3c(N)ncnc32)[C@H](O)[C@@H]1O", "note": "(stereo partly drawn) [S-adenosyl-L-methionine]", "values": [
      {"measurement": "Km", "setting": "[7]; read-out: Km of S-adenosyl-L-methionine for DIV3441H+ (PEAMT1H+; intact HIS tag)", "value": "62.5 ± 9.68", "unit": "µM"},
      {"measurement": "Km", "setting": "[7]; read-out: Km of S-adenosyl-L-methionine for DIV3441H− (PEAMT1H−; cleaved HIS tag)", "value": "146 ± 31.1", "unit": "µM"},
      {"measurement": "Km", "setting": "[4]; 10 mM DME, 0.004-3 mM SAM, read-out: Km of S-adenosyl-L-methionine for DIV3202H+ (PEAMT2H+; intact HIS tag)", "value": "167 ± 34.6", "unit": "µM"},
      {"measurement": "Km", "setting": "[4]; 30 mM MME, 0.004-3 mM SAM, read-out: Km of S-adenosyl-L-methionine for DIV3202H+ (PEAMT2H+; intact HIS tag)", "value": "163 ± 42.4", "unit": "µM"}
    ]},
    {"smiles": "NCCO", "note": "[ethanolamine (EA), ethanolamine]", "values": [
      {"measurement": "F1 phenotype, PEAMT1 dsRNA", "setting": "C. elegans [2]; P0 L4, 10 mM in plate media", "value": "L1/L2 arrest/lethality"},
      {"measurement": "suppression of PEAMT1 larval lethal RNAi phenotype", "setting": "C. elegans [2]", "value": "not"},
      {"measurement": "F1 phenotype, PEAMT2 dsRNA", "setting": "C. elegans [3]; P0 L4, 10 mM in plate media", "value": "L1/L2 arrest/lethality"},
      {"measurement": "rescue of PEAMT2 RNAi phenotype", "setting": "C. elegans [3]", "value": "not"}
    ]},
    {"smiles": "CCCCCC[C@@H](O)C/C=C\\CCCCCCCC(=O)OC", "note": "[methyl ester of ricinoleic acid]", "values": [
      {"measurement": "effect on water and electrolyte absorption", "setting": "[5]", "value": "ineffective"}
    ]}
  ]
}
